Reference: patent US20240208992A1, “MACROCYCLES AS CFTR MODULATORS” (Idorsia Pharmaceuticals Ltd, priority 2021, published 2024)
pEC50: −log10 of the molar value.

Each compound was assayed against human F508del-CFTR (Homo sapiens, UniProt P13569, DEL508-508) (assay: F508del-CFTR cell surface expression (corrector activity), DiscoveRx ß-galactosidase complementation chemiluminescence assay in recombinant U2OS cell line). Conditions: EC50, F508del-CFTR cell surface expression, U2OS cell line, 16h compound incubation; geomean values.
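Further: U2OS cells co-expressing ProLink-tagged F508del-CFTR and a membrane-anchored enzyme acceptor, where more surface CFTR restores β-galactosidase activity measured by chemiluminescence.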

human F508del-CFTR, sequence (P13569 with tags, fused parts or gaps DEL508-508): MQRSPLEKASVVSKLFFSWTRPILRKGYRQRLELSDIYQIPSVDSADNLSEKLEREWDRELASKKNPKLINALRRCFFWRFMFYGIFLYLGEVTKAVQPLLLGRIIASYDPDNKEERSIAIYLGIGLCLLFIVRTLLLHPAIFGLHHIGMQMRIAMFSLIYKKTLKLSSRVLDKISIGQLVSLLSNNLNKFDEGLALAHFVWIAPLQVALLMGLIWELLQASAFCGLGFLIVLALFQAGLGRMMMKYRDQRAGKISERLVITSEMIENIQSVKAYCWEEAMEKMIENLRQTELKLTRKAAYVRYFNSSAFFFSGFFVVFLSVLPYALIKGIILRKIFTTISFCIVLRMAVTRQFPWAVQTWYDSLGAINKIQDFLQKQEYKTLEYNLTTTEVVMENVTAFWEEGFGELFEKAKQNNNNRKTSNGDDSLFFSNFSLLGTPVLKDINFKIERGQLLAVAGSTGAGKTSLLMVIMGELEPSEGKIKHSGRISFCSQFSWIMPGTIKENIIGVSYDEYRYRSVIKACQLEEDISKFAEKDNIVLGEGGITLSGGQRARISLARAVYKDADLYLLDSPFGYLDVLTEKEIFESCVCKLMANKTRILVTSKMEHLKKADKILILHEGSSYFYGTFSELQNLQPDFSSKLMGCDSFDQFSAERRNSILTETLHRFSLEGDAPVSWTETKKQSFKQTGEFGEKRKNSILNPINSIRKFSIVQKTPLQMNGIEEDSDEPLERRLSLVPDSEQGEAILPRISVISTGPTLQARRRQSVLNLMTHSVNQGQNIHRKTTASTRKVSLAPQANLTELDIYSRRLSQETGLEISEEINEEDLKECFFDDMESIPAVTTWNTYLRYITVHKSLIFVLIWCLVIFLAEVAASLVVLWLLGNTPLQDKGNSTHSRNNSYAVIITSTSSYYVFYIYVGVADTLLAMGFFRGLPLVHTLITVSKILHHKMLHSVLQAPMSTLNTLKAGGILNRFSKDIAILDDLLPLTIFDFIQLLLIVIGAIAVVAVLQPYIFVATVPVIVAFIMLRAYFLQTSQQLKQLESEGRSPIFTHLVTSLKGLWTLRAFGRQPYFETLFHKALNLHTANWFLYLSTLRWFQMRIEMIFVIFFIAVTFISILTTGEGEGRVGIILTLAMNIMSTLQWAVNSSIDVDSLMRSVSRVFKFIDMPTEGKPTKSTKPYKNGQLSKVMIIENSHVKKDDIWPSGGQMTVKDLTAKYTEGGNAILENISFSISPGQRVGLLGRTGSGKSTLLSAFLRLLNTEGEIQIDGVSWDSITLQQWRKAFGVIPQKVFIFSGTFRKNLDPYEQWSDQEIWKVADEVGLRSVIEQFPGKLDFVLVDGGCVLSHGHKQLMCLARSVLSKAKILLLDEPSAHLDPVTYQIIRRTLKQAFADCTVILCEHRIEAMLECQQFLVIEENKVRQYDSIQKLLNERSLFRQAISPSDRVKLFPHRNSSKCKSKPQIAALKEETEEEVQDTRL

SMILES	pEC50
COc1cccc2c1C(=O)N[C@H](C(=O)NCCc1ccc3c(c1)CCCO3)CC(=O)N(C)[C@@H](CC(C)C)C(=O)N(CCC1CCCCC1)CC(=O)N[C@H](Cc1ccccc1)CO2 (mixture of isomers) [Example 11, (3R,9S,13RS)-3-benzyl-N-(2-(chroman-6-yl)ethyl)-7-(2-cyclohexylethyl)-9-isobutyl-16-methoxy-10-methyl-5,8,11,15-tetraoxo-2,3,4,5,6,7,8,9,10,11,12,13,14,15-tetradecahydrobenzo[p][1]oxa[4,7,10,14]tetraazacycloheptadecine-13-carboxamide]	6.74
COc1cccc2c1C(=O)N[C@H](C(=O)NCCc1ccc3c(c1)OCCCO3)CC(=O)N(C)[C@@H](CC(C)C)C(=O)N(CCC1CCCCC1)CC(=O)N[C@H](Cc1ccccc1)CO2 (mixture of isomers) [Example 12, (3R,9S,13RS)-3-benzyl-7-(2-cyclohexylethyl)-N-(2-(3,4-dihydro-2H-benzo[b][1,4]dioxepin-7-yl)ethyl)-9-isobutyl-16-methoxy-10-methyl-5,8,11,15-tetraoxo-2,3,4,5,6,7,8,9,10,11,12,13,14,15-tetradecahydrobenzo[p][1]oxa[4,7,10,14]tetraazacycloheptadecine-13-carboxamide]	6.57
COc1cccc2c1C(=O)N[C@H](C(=O)NCCc1ccc3c(c1)OCC3)CC(=O)N(C)[C@@H](CC(C)C)C(=O)N(CCC1CCCCC1)CC(=O)N[C@H](Cc1ccccc1)CO2 (mixture of isomers) [Example 15, (3R,9S,13RS)-3-benzyl-7-(2-cyclohexylethyl)-N-(2-(2,3-dihydrobenzofuran-6-yl)ethyl)-9-isobutyl-16-methoxy-10-methyl-5,8,11,15-tetraoxo-2,3,4,5,6,7,8,9,10,11,12,13,14,15-tetradecahydrobenzo[p][1]oxa[4,7,10,14]tetraazacycloheptadecine-13-carboxamide]	6.73
COc1cccc2c1C(=O)N[C@H](C(=O)NCCc1nc3ccccc3o1)CC(=O)N(C)[C@@H](CC(C)C)C(=O)N(CCC1CCCCC1)CC(=O)N[C@H](Cc1ccccc1)CO2 (mixture of isomers) [Example 16, (3R,9S,13RS)-N-(2-(benzo[d]oxazol-2-yl)ethyl)-3-benzyl-7-(2-cyclohexylethyl)-9-isobutyl-16-methoxy-10-methyl-5,8,11,15-tetraoxo-2,3,4,5,6,7,8,9,10,11,12,13,14,15-tetradecahydrobenzo[p][1]oxa[4,7,10,14]tetraazacycloheptadecine-13-carboxamide]	6.57
Cc1csc(CCNC(=O)[C@@H]2CC(=O)N(C)[C@@H](CC(C)C)C(=O)N3CCCC[C@@H]3C(=O)N[C@H](Cc3ccccc3)COc3ccc4ncn(C)c4c3C(=O)N2)n1 (mixture of isomers) [Example 23, (8RS,12S,18aR,21R)-21-benzyl-12-isobutyl-5,11-dimethyl-N-(2-(4-methylthiazol-2-yl)ethyl)-6,10,13,19-tetraoxo-6,7,8,9,10,11,12,13,16,17,18,18a,19,20,21,22-hexadecahydro-5H,15H-imidazo[4′,5′:5,6]benzo[1,2-p]pyrido[2,1-f][1]oxa[4,7,10,14]tetraazacycloheptadecine-8-carboxamide]	6.00
CC(C)C[C@H]1C(=O)N2CCCC[C@@H]2C(=O)N[C@H](Cc2ccccc2)COc2ccc3ncn(C)c3c2C(=O)N[C@H](C(=O)NCCc2cccc(-n3nccn3)c2)CC(=O)N1C (mixture of isomers) [Example 28, (8RS,12S,18aR,21R)-N-(3-(2H-1,2,3-triazol-2-yl)phenethyl)-21-benzyl-12-isobutyl-5,11-dimethyl-6,10,13,19-tetraoxo-6,7,8,9,10,11,12,13,16,17,18,18a,19,20,21,22-hexadecahydro-5H,15H-imidazo[4′,5′:5,6]benzo[1,2-p]pyrido[2,1-f][1]oxa[4,7,10,14]tetraazacycloheptadecine-8-carboxamide]	6.22
